Test results reported in PMC6412891, “Synthesis and Biological Evaluation of Novel Thiazolyl-Coumarin Derivatives as Potent Histone Deacetylase Inhibitors with Antifibrotic Activity” (Molecules, 2019).

Experiments:
[1] = test system: neonatal rat cardiac fibroblasts (CFs); assay: FBS-induced cardiac fibroblast proliferation assay (Alamar Blue); format: cell-based; details: 10% FBS-induced CF proliferation, 48 h, read-out: Inhibition percentage of cell proliferation
HDAC6 human recombinant = target: T1, HDAC6 human recombinant (Homo sapiens, UniProt Q9UBN7); assay: HDAC6 inhibitory activity, fluorometric kit; format: biochemical; details: Class II
T1 construct: purchased Enzo Life Science BML-AK516
T1 sequence (Q9UBN7 1-1215): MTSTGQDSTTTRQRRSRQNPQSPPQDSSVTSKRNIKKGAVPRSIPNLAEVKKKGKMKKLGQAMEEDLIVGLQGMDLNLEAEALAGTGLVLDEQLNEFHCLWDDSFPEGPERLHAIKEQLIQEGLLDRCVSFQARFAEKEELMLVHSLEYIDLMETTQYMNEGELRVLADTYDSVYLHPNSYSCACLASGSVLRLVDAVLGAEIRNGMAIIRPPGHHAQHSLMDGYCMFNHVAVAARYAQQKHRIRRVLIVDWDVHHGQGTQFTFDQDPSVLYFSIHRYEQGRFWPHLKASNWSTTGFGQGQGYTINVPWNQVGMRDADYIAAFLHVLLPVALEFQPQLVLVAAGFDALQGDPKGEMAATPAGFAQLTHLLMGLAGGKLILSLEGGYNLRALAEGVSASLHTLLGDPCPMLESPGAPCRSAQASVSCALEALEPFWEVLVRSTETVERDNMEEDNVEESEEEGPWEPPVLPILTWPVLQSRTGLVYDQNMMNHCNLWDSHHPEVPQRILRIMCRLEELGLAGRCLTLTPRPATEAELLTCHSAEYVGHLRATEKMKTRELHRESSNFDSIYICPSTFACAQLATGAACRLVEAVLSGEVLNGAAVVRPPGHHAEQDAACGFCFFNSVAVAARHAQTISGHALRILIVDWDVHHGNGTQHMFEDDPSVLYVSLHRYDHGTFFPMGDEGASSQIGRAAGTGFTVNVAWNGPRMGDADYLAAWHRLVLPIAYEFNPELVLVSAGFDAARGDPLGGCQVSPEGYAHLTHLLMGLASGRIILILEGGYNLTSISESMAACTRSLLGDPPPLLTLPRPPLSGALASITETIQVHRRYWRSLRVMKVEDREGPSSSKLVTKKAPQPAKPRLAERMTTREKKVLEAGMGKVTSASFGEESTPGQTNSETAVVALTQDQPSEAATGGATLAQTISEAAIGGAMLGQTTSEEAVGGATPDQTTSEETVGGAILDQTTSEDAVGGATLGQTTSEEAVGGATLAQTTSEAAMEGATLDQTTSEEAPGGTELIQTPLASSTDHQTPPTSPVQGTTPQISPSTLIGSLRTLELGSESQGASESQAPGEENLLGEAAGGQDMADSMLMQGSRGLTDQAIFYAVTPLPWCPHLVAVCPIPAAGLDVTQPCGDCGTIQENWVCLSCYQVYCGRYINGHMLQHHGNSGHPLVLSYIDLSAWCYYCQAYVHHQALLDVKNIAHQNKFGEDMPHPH

IC50 (HDAC6 human recombinant) | SMILES | inhibition at 1 µM [1] | inhibition at 5 µM [1] | inhibition at 10 µM [1]
98.3 ± 3.5 nM | O=C(CCCCC(=O)Nc1nc(-c2cc3ccccc3oc2=O)cs1)NO [Compound 8a, 5-[4-(2-Oxo-2H-chromen-3-yl)-thiazol-2-yl-carbamoyl]-N-hydroxypentanamide] | 59.4 ± 6.1% | 79.9 ± 9.7% | 94.4 ± 3.8%
153 ± 5.3 nM | O=C(CCCCC1CCSS1)Nc1nc(-c2cc3ccccc3oc2=O)cs1 (stereo not shown) [Compound 5a, 5-[1,2]-Dithiolan-3-yl-N-[4-(2-oxo-2H-chromen-3-yl)-thiazol-2-yl]-pentanamide] | 57.3 ± 6.7% | 70.7 ± 7.1% | 92.8 ± 6.4%
276 ± 20.9 nM | O=C(Nc1nc(-c2cc3ccccc3oc2=O)cs1)c1ccc(O)c(O)c1 [Compound 6a] | 3 ± 3.9% | 35 ± 1.9% | 60.6 ± 1.9%
5590 ± 184 nM | O=C(O)CCCCC(=O)Nc1nc(-c2cc3ccccc3oc2=O)cs1 [Compound 7a] | 0.5 ± 0.1% | 26.8 ± 5.9% | 45 ± 5.1%
